Key:
[1] = test system: Dopamine; test: Biological amine levels by HPLC-ECD after 45 min: dopamine; format: in vivo, mice
Protocol: (§1) Test Substances: […] Animals: Male Laca mice. Test Procedures: Animals were sacrificed after 45 min of drug administration similar to the time period of behavioral observations. HPLC-ECD detector: Mobile phase—Phosphate buffer: […] • Column—ODS-3 C-18 column (250×4.6 mm I.D.; 5 μm particle size)

[2] = test system: mice; details: cited from earlier work
[3] = test system: rats; details: 1.25, 2.5, 5 and 10 mg/kg P.O., chronic treatment 14 days; cited from earlier work
[4] = test system: AC activity and c-AMP levels; details: platelet and various brain regions, CUMS rats; cited from earlier work
[5] = test system: monoamine oxidase enzymes; details: mice; cited from earlier work
[6] = test system: Male Laca mice; test: Porsolt Forced Swim test (behavioural despair test); format: in vivo
Protocol: Method: Porsolt Forced Swim test (also called behavioural despair test)
Animals are subjected to two trials during which they are force to swim in an acrylic glass cylinder filled with water and from which they cannot escape. The first trial lasts 15 minutes. Then, after 24-hours, a second trial is performed which lasts 5 minutes. The time that the animal spends without moving in the second trial is measured. This immobility time is decreased by antidepressants.
After some time, the mice give up the attempt to escape from the water and subside into immobility. The duration of the immobility is measured. An animal was considered to be immobile whenever it remained floating passively in the water in a slightly hunched but upright position, its nose above the water surface. […] The total immobility period during the 6-min test was recorded with the help of stopwatch.
The immobility period data obtained from tables 1, 2 and 3 is plotted against the dose administered in FIG. 1, FIG. 2 and FIG. 3 respectively, as shown in the drawing accompanying this specification.
Test Procedures: Porsolt Forced Swim test. Rectangular glass jar (25×12×25 cm^3) containing 15 cm of water maintained at 24±1° C.
The immobility period data obtained from Tables 4, 5, 6 and 7 is plotted against the dose administered in FIG. 4, FIG. 5, FIG. 6 and FIG. 7 respectively, as shown in the drawing accompanying this specification.

[7] = test system: serotonin (5-HT) as well as dopamine levels; details: mice; cited from earlier work
[8] = test system: hippocampal neurogenesis; details: 10 and 20 mg/kg, P.O., chronically stressed rats; cited from earlier work
[9] = test system: Norepinephrine; test: Biological amine levels by HPLC-ECD after 45 min: norepinephrine; format: in vivo, mice
Protocol: as §1

[10] = Safety and tolerability of a single dose in healthy human subjects; format: in vivo; details: curcumin 1 gm single dose
Text: The secondary aim of study was to monitor the safety and tolerability of a single dose of 1 g curcuminoids when administered in 12 healthy human subjects.

[11] = test system: 5-hydroxytryptamine; test: Biological amine levels by HPLC-ECD after 45 min: 5-hydroxytryptamine; format: in vivo, mice
Protocol: as §1

[12] = dose 100 mg/kg vs fluoxetine 10 mg/kg
[13] = dose 100 mg/kg, sacrificed after 45 min, n = 5

Structure (SMILES): COc1cc(C=CC(=O)CC(=O)C=Cc2ccc(O)c(OC)c2)ccc1O [Curcumin, 1,7-bis(4-hydroxy-3-methoxyphenyl)-1,6-heptadien-3,5-dione]
- Dopamine % increase w.r.t Control ([1]; dose 100 mg/kg): −20.25%
- Dopamine % increase w.r.t Fluoxetine [1, 12]: −21.77%
- Dopamine (ng/mg tissue) [1, 13]: 4.33 ± 0.58 ng/mg tissue
- Immobility period [2]: inhibited the immobility period
- Immobility time in the forced swim test [3]: reduced the immobility time
- AC activity and c-AMP levels [4]: enhanced AC activity and c-AMP levels
- Monoamine oxidase enzymes [5]: inhibited the monoamine oxidase enzymes
- Potentiation with sub-effective dose of desipramine ([6]; 50 mg/kg with desipramine 5 mg/kg): failed to show any potentiation
- Potentiated effect with sub-effective dose of tranylcypromine ([6]; 50 mg/kg with tranylcypromine 5 mg/kg): None
- % Decrease in immobility w.r.t saline treated group ([6]; Table 1, dose 50 mg/kg): 22.55%
- Immobility period (in seconds) ([6]; Table 1, dose 50 mg/kg): 171.8 ± 10.87^ seconds
- % Decrease in immobility w.r.t saline treated group ([6]; Table 2, dose 100 mg/kg): 9.89%
- Immobility period ([6]; Table 2, dose 100 mg/kg): 174.2 ± 15.17 s
- % Decrease in immobility w.r.t saline treated group ([6]; Table 3, dose 200 mg/kg): 31.10%
- Immobility period ([6]; Table 3, dose 200 mg/kg): 133.2 ± 26.82 s
- % Decrease in immobility w.r.t saline group ([6]; Table 4, alone, 50 mg/kg): 12.79%
- Immobility period (in seconds) ([6]; Table 4, alone, 50 mg/kg): 171.8 ± 10.87^ seconds
- % Decrease in immobility w.r.t vehicle group ([6]; Table 5, alone, 50 mg/kg): 24.46%
- Immobility period ([6]; Table 5, alone, 50 mg/kg): 160.33 ± 19.09 s
- % Decrease in immobility w.r.t vehicle group ([6]; Table 6, alone, 50 mg/kg): 15.90%
- Immobility period ([6]; Table 6, alone, 50 mg/kg): 215.50 ± 13.97 s
- % Decrease in immobility w.r.t vehicle group ([6]; Table 7, alone, 50 mg/kg): 4.91%
- Immobility period ([6]; Table 7, alone, 50 mg/kg): 262.25 ± 11.89 s
- Serotonin (5-HT) and dopamine levels [7]: increases serotonin (5-HT) as well as dopamine levels
- Hippocampal neurogenesis [8]: increased hippocampal neurogenesis
- Norepinephrine % increase w.r.t Control ([9]; dose 100 mg/kg): 67.90%
- Norepinephrine % increase w.r.t Fluoxetine [9, 12]: 19.18%
- Norepinephrine (ng/mg tissue) [9, 13]: 4.97 ± 0.33a ng/mg tissue
- Tolerability ([10]; all subjects): well tolerated
- Adverse events ([10]; entire course of study): no adverse events reported
- 5-hydroxytryptamine % increase w.r.t Control ([11]; dose 100 mg/kg): 6.80%
- 5-hydroxytryptamine % increase w.r.t Fluoxetine [11, 12]: −21.77%
- 5-hydroxytryptamine (ng/mg tissue) [11, 13]: 4.24 ± 0.56 ng/mg tissue

Source: patent US9259401B2 (priority 2011, dated 2016)
